Data: the supplement of paper PMC11451515

Assays:
Conditions in all cases: 48 h
NOMO1 [1] = assay: AUC of viability dose-response curve (% viability x log10 dose units); higher = less sensitive
Summary of the method: (§1)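 Leukemia cells adapted to each medium (500 or 1000 cells/well, 1536-well plates) were exposed to library compounds in DMSO for 48 h at 37°C at 11 threefold doses, 47 μM to 0.79 nM. Luminescence by CellTiter-Glo One was normalised per plate to DMSO and cell-free wells, then fitted with a four-parameter log-logistic curve on log10 dose. Curves above full viability were scaled and quality-control failures removed before area under the curve was integrated by trapezoidal rule.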

P12-Ichikawa [2] = assay: as above
Summary of the method: as §1

SEM cells [3] = assay: as above
Summary of the method: as §1

P12-Ichikawa [4] = assay: cell viability relative to DMSO control; higher = less cytotoxic
Summary of the method: (§2)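 Viability values are per-plate percentages of DMSO wells, with background from cell-free wells. Library compounds in DMSO were pin-dosed, in an 11-point threefold series from 47 μM to 0.79 nM, onto NOMO1 or SEM (500 cells/well) or P12-Ichikawa (1000 cells/well) leukemia cells in 1536-well plates (5 μl). Those cells had been adapted for at least four passages in each medium, and CellTiter-Glo One luminescence was read after 48 h at 37°C.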

SEM cells [5] = assay: as above
Summary of the method: as §2

NOMO1 [6] = assay: as above
Summary of the method: as §2

CCCCCCCc1ccc(CCc2cccc(O)c2C(=O)O)cc1
AUC of viability dose-response curve
Conditions | NOMO1 [1] | P12-Ichikawa [2] | SEM cells [3]
HPLM + 10% dialyzed FBS | 472 | 445 | 474
RPMI 5 mM glucose + 10% FBS | 445 | 434 | 474
RPMI 5 mM glucose + 10% dialyzed FBS | 441 | 435 | 461

cell viability [%]
Conditions | HPLM + 10% dialyzed FBS | RPMI 5 mM glucose + 10% FBS | RPMI 5 mM glucose + 10% dialyzed FBS
P12-Ichikawa [4], 0.000781 µM | 122 | 125 | –
P12-Ichikawa [4], 0.00234 µM | 124 | 121 | –
P12-Ichikawa [4], 0.00702 µM | 126 | 127 | –
P12-Ichikawa [4], 0.0211 µM | 124 | 129 | –
P12-Ichikawa [4], 0.0632 µM | 119 | 128 | –
P12-Ichikawa [4], 0.19 µM | 111 | 119 | –
P12-Ichikawa [4], 0.569 µM | 123 | 107 | –
P12-Ichikawa [4], 1.71 µM | 110 | 111 | –
P12-Ichikawa [4], 5.12 µM | 108 | 104 | –
P12-Ichikawa [4], 15.4 µM | 104 | 97.7 | –
P12-Ichikawa [4], 46.1 µM | 90.2 | 91.3 | –
SEM cells [5], 0.000781 µM | – | 82.3 | 75.5
SEM cells [5], 0.00234 µM | – | 113 | 121
SEM cells [5], 0.00702 µM | – | 126 | 135
SEM cells [5], 0.0211 µM | – | 128 | 130
SEM cells [5], 0.0632 µM | – | 120 | 119
SEM cells [5], 0.19 µM | – | 112 | 111
SEM cells [5], 0.569 µM | – | 111 | 134
SEM cells [5], 1.71 µM | – | 122 | 119
SEM cells [5], 5.12 µM | – | 105 | 110
SEM cells [5], 15.4 µM | – | 107 | 125
SEM cells [5], 46.1 µM | – | 101 | 107

COc1cc(C)c(Sc2cnc(NC(=O)c3ccc(CNC(C)C(C)(C)C)cc3)s2)cc1C(=O)N1CCN(C(C)=O)CC1 (stereo not drawn)
AUC of viability dose-response curve
Conditions | NOMO1 [1] | P12-Ichikawa [2] | SEM cells [3]
HPLM + 10% dialyzed FBS | 442 | 447 | 365
RPMI 5 mM glucose + 10% FBS | 453 | 444 | 358
RPMI 5 mM glucose + 10% dialyzed FBS | 437 | 439 | 350

Conditions | cell viability [%]
NOMO1 [6], RPMI 5 mM glucose + 10% FBS, 0.000781 µM | 116
NOMO1 [6], RPMI 5 mM glucose + 10% FBS, 0.00234 µM | 131
NOMO1 [6], RPMI 5 mM glucose + 10% FBS, 0.00702 µM | 124
NOMO1 [6], RPMI 5 mM glucose + 10% FBS, 0.0211 µM | 128
NOMO1 [6], RPMI 5 mM glucose + 10% FBS, 0.0632 µM | 127
NOMO1 [6], RPMI 5 mM glucose + 10% FBS, 0.19 µM | 124
NOMO1 [6], RPMI 5 mM glucose + 10% FBS, 0.569 µM | 132
NOMO1 [6], RPMI 5 mM glucose + 10% FBS, 1.71 µM | 115
NOMO1 [6], RPMI 5 mM glucose + 10% FBS, 5.12 µM | 114
NOMO1 [6], RPMI 5 mM glucose + 10% FBS, 15.4 µM | 115
NOMO1 [6], RPMI 5 mM glucose + 10% FBS, 46.1 µM | 17
P12-Ichikawa [4], HPLM + 10% dialyzed FBS, 0.000781 µM | 125
P12-Ichikawa [4], HPLM + 10% dialyzed FBS, 0.00234 µM | 129
P12-Ichikawa [4], HPLM + 10% dialyzed FBS, 0.00702 µM | 120
P12-Ichikawa [4], HPLM + 10% dialyzed FBS, 0.0211 µM | 120
P12-Ichikawa [4], HPLM + 10% dialyzed FBS, 0.0632 µM | 122
P12-Ichikawa [4], HPLM + 10% dialyzed FBS, 0.19 µM | 127
P12-Ichikawa [4], HPLM + 10% dialyzed FBS, 0.569 µM | 115
P12-Ichikawa [4], HPLM + 10% dialyzed FBS, 1.71 µM | 110
P12-Ichikawa [4], HPLM + 10% dialyzed FBS, 5.12 µM | 109
P12-Ichikawa [4], HPLM + 10% dialyzed FBS, 15.4 µM | 101
P12-Ichikawa [4], HPLM + 10% dialyzed FBS, 46.1 µM | 7.33

CC(C)C[C@H](NC(=O)CNC(=O)c1cc(Cl)ccc1Cl)B1OC(=O)CC(CC(=O)O)(C(=O)O)O1 (stereo partly drawn)
AUC of viability dose-response curve
Conditions | NOMO1 [1] | P12-Ichikawa [2] | SEM cells [3]
HPLM + 10% dialyzed FBS | 276 | 270 | 231
RPMI 5 mM glucose + 10% FBS | 278 | 269 | 221
RPMI 5 mM glucose + 10% dialyzed FBS | 280 | 269 | 235

cell viability [%], SEM cells [5]
Conditions | HPLM + 10% dialyzed FBS | RPMI 5 mM glucose + 10% FBS
0.000781 µM | 101 | 120
0.00234 µM | 120 | 132
0.00702 µM | 125 | 124
0.0211 µM | 145 | 125
0.0632 µM | 128 | 99.9
0.19 µM | 16 | 13.3
0.569 µM | 8.29 | 8.91
1.71 µM | 7.41 | 8.18
5.12 µM | 5.78 | 6.61
15.4 µM | 4.49 | 4.78
46.1 µM | 4.53 | 4.54

O=C1Nc2cc(Br)ccc2/C1=C1/Nc2ccccc2/C1=N\O
AUC of viability dose-response curve
Conditions | NOMO1 [1] | P12-Ichikawa [2] | SEM cells [3]
HPLM + 10% dialyzed FBS | 366 | 365 | 296
RPMI 5 mM glucose + 10% FBS | 391 | 377 | 299
RPMI 5 mM glucose + 10% dialyzed FBS | 401 | 382 | 290

cell viability [%], SEM cells [5]
Conditions | HPLM + 10% dialyzed FBS | RPMI 5 mM glucose + 10% FBS | RPMI 5 mM glucose + 10% dialyzed FBS
0.000781 µM | 109 | 87.2 | 111
0.00234 µM | 102 | 113 | 102
0.00702 µM | 110 | 110 | 89.9
0.0211 µM | 100 | 95.3 | 99.4
0.0632 µM | 108 | 98.4 | 90.5
0.19 µM | 78.5 | 98.8 | 69.9
0.569 µM | 66.5 | 60 | 64.9
1.71 µM | 31.5 | 21.3 | 34.8
5.12 µM | 4.61 | 2.47 | 4.53
15.4 µM | 3.01 | 1.39 | 2.51
46.1 µM | 1.68 | 0.712 | 1.3

CC1=C(C=CC=C1)N2\C(=N/C3=C(C(=CC=C3)C)C2=O)C[N]4N=CC5=C4N=CN=C5N
AUC of viability dose-response curve
Conditions | NOMO1 [1] | P12-Ichikawa [2] | SEM cells [3]
HPLM + 10% dialyzed FBS | 329 | 368 | 469
RPMI 5 mM glucose + 10% FBS | 307 | 366 | 470
RPMI 5 mM glucose + 10% dialyzed FBS | 341 | 377 | 471

cell viability [%]
Conditions | NOMO1 [6] | SEM cells [5]
HPLM + 10% dialyzed FBS, 0.000781 µM | 114 | 99.5
HPLM + 10% dialyzed FBS, 0.00234 µM | 116 | 117
HPLM + 10% dialyzed FBS, 0.00702 µM | 147 | 119
HPLM + 10% dialyzed FBS, 0.0211 µM | 133 | 128
HPLM + 10% dialyzed FBS, 0.0632 µM | 148 | 124
HPLM + 10% dialyzed FBS, 0.19 µM | 147 | 128
HPLM + 10% dialyzed FBS, 0.569 µM | 49.6 | 121
HPLM + 10% dialyzed FBS, 1.71 µM | 44.3 | 123
HPLM + 10% dialyzed FBS, 5.12 µM | 40 | 125
HPLM + 10% dialyzed FBS, 15.4 µM | 38.5 | 117
HPLM + 10% dialyzed FBS, 46.1 µM | 35.2 | 121
RPMI 5 mM glucose + 10% FBS, 0.000781 µM | 122 | 100
RPMI 5 mM glucose + 10% FBS, 0.00234 µM | 126 | 124
RPMI 5 mM glucose + 10% FBS, 0.00702 µM | 121 | 141
RPMI 5 mM glucose + 10% FBS, 0.0211 µM | 143 | 113
RPMI 5 mM glucose + 10% FBS, 0.0632 µM | 125 | 113
RPMI 5 mM glucose + 10% FBS, 0.19 µM | 129 | 136
RPMI 5 mM glucose + 10% FBS, 0.569 µM | 33.4 | 135
RPMI 5 mM glucose + 10% FBS, 1.71 µM | 26 | 135
RPMI 5 mM glucose + 10% FBS, 5.12 µM | 26.2 | 124
RPMI 5 mM glucose + 10% FBS, 15.4 µM | 22.9 | 131
RPMI 5 mM glucose + 10% FBS, 46.1 µM | 22.7 | 119

O=C(NC[C@H]1CN(c2ccc(N3CCOCC3=O)cc2)C(=O)O1)c1ccc(Cl)s1
AUC of viability dose-response curve
Conditions | NOMO1 [1] | P12-Ichikawa [2] | SEM cells [3]
HPLM + 10% dialyzed FBS | 345 | 372 | 423
RPMI 5 mM glucose + 10% FBS | 312 | 376 | 459
RPMI 5 mM glucose + 10% dialyzed FBS | 345 | 395 | 444

cell viability [%]
Conditions | HPLM + 10% dialyzed FBS | RPMI 5 mM glucose + 10% FBS | RPMI 5 mM glucose + 10% dialyzed FBS
P12-Ichikawa [4], 0.000781 µM | 104 | – | 103
P12-Ichikawa [4], 0.00234 µM | 111 | – | 119
P12-Ichikawa [4], 0.00702 µM | 112 | – | 115
P12-Ichikawa [4], 0.0211 µM | 115 | – | 125
P12-Ichikawa [4], 0.0632 µM | 113 | – | 126
P12-Ichikawa [4], 0.19 µM | 119 | – | 123
P12-Ichikawa [4], 0.569 µM | 122 | – | 134
P12-Ichikawa [4], 1.71 µM | 114 | – | 132
P12-Ichikawa [4], 5.12 µM | 16 | – | 51.1
P12-Ichikawa [4], 15.4 µM | 13.4 | – | 37.8
P12-Ichikawa [4], 46.1 µM | 12.4 | – | 19.3
SEM cells [5], 0.000781 µM | 89.8 | 103 | 109
SEM cells [5], 0.00234 µM | 107 | 113 | 105
SEM cells [5], 0.00702 µM | 104 | 120 | 118
SEM cells [5], 0.0211 µM | 107 | 114 | 98.9
SEM cells [5], 0.0632 µM | 104 | 102 | 116
SEM cells [5], 0.19 µM | 103 | 117 | 132
SEM cells [5], 0.569 µM | 125 | 129 | 120
SEM cells [5], 1.71 µM | 108 | 109 | 129
SEM cells [5], 5.12 µM | 116 | 117 | 136
SEM cells [5], 15.4 µM | 134 | 123 | 134
SEM cells [5], 46.1 µM | 118 | 115 | 122

O=C(Nc1nc2ccccc2n1CCN1CCOCC1)c1cccc([N+](=O)[O-])c1
AUC of viability dose-response curve
Conditions | NOMO1 [1] | P12-Ichikawa [2] | SEM cells [3]
HPLM + 10% dialyzed FBS | 447 | 462 | 474
RPMI 5 mM glucose + 10% FBS | 465 | 445 | 465
RPMI 5 mM glucose + 10% dialyzed FBS | 470 | 449 | 444
